The source of these data is ChEMBL document CHEMBL1240402 (2010).

In brackets after ≈: the same amount, converted by molar mass.

This assay relates to Clostridium perfringens.

Usually MIC stands for the lowest concentration that inhibits growth of the organism. A higher MIC goes with a less susceptible organism. As for `CS(=O)(=O)c1ccc([C@@H](O)[C@@H](CF)NC(=O)C(Cl)Cl)cc1` [FLORFENICOL], the MIC came to 16 µg/mL (≈ 44.7 µM).
The value for `CC(=O)NC[C@H]1CN(c2ccc(N3CCOCC3)c(F)c2)C(=O)O1` [LINEZOLID] was 64 µg/mL (≈ 190 µM).
